Measurements from patent publication US6518243B1, “Desleucyl glycopeptide antibiotics and methods of making same” (Trustees of Princeton University, priority 1999, dated 2003).

Experiments:
E. faecalis (CL 4877) = test: Zone of inhibition screen, 96 well agar array format; assay type: cell-based; design: scale not given here
Procedure, shortened: (§1)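 Agar-array screen, 96-well; single compounds vs. strain panel (panel also incl. E. faecium ATCC 49624); antibacterial activity scored.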

S. aureus (ATCC 29213) = test: as above; assay type: cell-based; design: scale not given here
Procedure, shortened: as §1

[1] = zone of inhibition relative to 1 mg/ml p-chlorobiphenylvancomycin
[2] = zone of inhibition relative to 1 mg/ml stock solution of p-chlorobiphenylvancomycin

Structure (SMILES) | zone score, E. faecalis CL 4877 (E. faecalis (CL 4877); [1]) | zone score, S. aureus ATCC 29213 (S. aureus (ATCC 29213); [1]) | zone score, E. faecalis CL 4877 (E. faecalis (CL 4877); [2]) | zone score, S. aureus ATCC 29213 (S. aureus (ATCC 29213); [2])
CC1OC(OC2C(Oc3c4cc5cc3Oc3ccc(cc3Cl)C(O)C3NC(=O)C(NC(=O)C5NC(=O)C(CC(N)=O)NC(=O)C(NC(=O)CNC(=O)CNC(=O)CNC(=O)OCc5ccccc5)C(O)c5ccc(c(Cl)c5)O4)c4ccc(O)c(c4)-c4c(O)cc(O)cc4C(C(=O)O)NC3=O)OC(CO)C(O)C2O)CC(C)(NCc2ccc(-c3ccc(Cl)cc3)cc2)C1O (stereo not shown) [Compound 215] | 2 | 2 |  | 
CC1OC(OC2C(Oc3c4cc5cc3Oc3ccc(cc3Cl)C(O)C3NC(=O)C(NC(=O)C5NC(=O)C(CC(N)=O)NC(=O)C(NC(=O)C(N)CC(=O)OC(C)(C)C)C(O)c5ccc(c(Cl)c5)O4)c4ccc(O)c(c4)-c4c(O)cc(O)cc4C(C(=O)O)NC3=O)OC(CO)C(O)C2O)CC(C)(NCc2ccc(-c3ccc(Cl)cc3)cc2)C1O (stereo not shown) [Compound 3] |  |  | 2 | 2
CC1OC(OC2C(Oc3c4cc5cc3Oc3ccc(cc3Cl)C(O)C3NC(=O)C(NC(=O)C5NC(=O)C(CC(N)=O)NC(=O)C(NC(=O)CS(=O)(=O)O)C(O)c5ccc(c(Cl)c5)O4)c4ccc(O)c(c4)-c4c(O)cc(O)cc4C(C(=O)O)NC3=O)OC(CO)C(O)C2O)CC(C)(NCc2ccc(-c3ccc(Cl)cc3)cc2)C1O (stereo not shown) [Compound 205] | 2 | 2 |  | 
CC1OC(OC2C(Oc3c4cc5cc3Oc3ccc(cc3Cl)C(O)C3NC(=O)C(NC(=O)C5NC(=O)C(CC(N)=O)NC(=O)C(NC(=O)CN(CCO)CCO)C(O)c5ccc(c(Cl)c5)O4)c4ccc(O)c(c4)-c4c(O)cc(O)cc4C(C(=O)O)NC3=O)OC(CO)C(O)C2O)CC(C)(NCc2ccc(-c3ccc(Cl)cc3)cc2)C1O (stereo not shown) [Compound 130] |  |  | 2 | 2
CC1OC(OC2C(Oc3c4cc5cc3Oc3ccc(cc3Cl)C(O)C3NC(=O)C(NC(=O)C5NC(=O)C(CC(N)=O)NC(=O)C(NC(=O)CCC=O)C(O)c5ccc(c(Cl)c5)O4)c4ccc(O)c(c4)-c4c(O)cc(O)cc4C(C(=O)O)NC3=O)OC(CO)C(O)C2O)CC(C)(NCc2ccc(-c3ccc(Cl)cc3)cc2)C1O (stereo not shown) [Compound 204] | 2 | 2 |  | 
CC1OC(OC2C(Oc3c4cc5cc3Oc3ccc(cc3Cl)C(O)C3NC(=O)C(NC(=O)C5NC(=O)C(CC(N)=O)NC(=O)C(NC(=O)C(N)=O)C(O)c5ccc(c(Cl)c5)O4)c4ccc(O)c(c4)-c4c(O)cc(O)cc4C(C(=O)O)NC3=O)OC(CO)C(O)C2O)CC(C)(NCc2ccc(-c3ccc(Cl)cc3)cc2)C1O (stereo not shown) [Compound 200] |  |  | 2 | 2
CC1OC(OC2C(Oc3c4cc5cc3Oc3ccc(cc3Cl)C(O)C(NC(=O)C3(C(N)=O)CC3)C(=O)NC(CC(N)=O)C(=O)NC5C(=O)NC3C(=O)NC(C(=O)NC(C(=O)O)c5cc(O)cc(O)c5-c5cc3ccc5O)C(O)c3ccc(c(Cl)c3)O4)OC(CO)C(O)C2O)CC(C)(NCc2ccc(-c3ccc(Cl)cc3)cc2)C1O (stereo not shown) [Compound 98] |  |  | 2 | 2
CC1OC(OC2C(Oc3c4cc5cc3Oc3ccc(cc3Cl)C(O)C3NC(=O)C(NC(=O)C5NC(=O)C(CC(N)=O)NC(=O)C(NC(=O)c5cc(C(F)(F)F)cc(C(F)(F)F)c5)C(O)c5ccc(c(Cl)c5)O4)c4ccc(O)c(c4)-c4c(O)cc(O)cc4C(C(=O)O)NC3=O)OC(CO)C(O)C2O)CC(C)(NCc2ccc(-c3ccc(Cl)cc3)cc2)C1O (stereo not shown) [Compound 254] | 2 | 2 |  | 
CC(=O)NC(C)C(=O)NC1C(=O)NC(CC(N)=O)C(=O)NC2C(=O)NC3C(=O)NC(C(=O)NC(C(=O)O)c4cc(O)cc(O)c4-c4cc3ccc4O)C(O)c3ccc(c(Cl)c3)Oc3cc2cc(c3OC2OC(CO)C(O)C(O)C2OC2CC(C)(NCc3ccc(-c4ccc(Cl)cc4)cc3)C(O)C(C)O2)Oc2ccc(cc2Cl)C1O (stereo not shown) [Compound 112] |  |  |  | 2
C[C@H]1O[C@H](O[C@H]2[C@H](Oc3c4cc5cc3Oc3ccc(cc3Cl)[C@@H](O)[C@@H](NC(=O)[C@@H](N)Cc3ccc(OC(C)(C)C)cc3)C(=O)N[C@@H](CC(N)=O)C(=O)N[C@H]5C(=O)N[C@H]3C(=O)N[C@H](C(=O)N[C@@H](C(=O)O)c5cc(O)cc(O)c5-c5cc3ccc5O)[C@H](O)c3ccc(c(Cl)c3)O4)O[C@H](CO)[C@@H](O)[C@@H]2O)C[C@@](C)(NCc2ccc(-c3ccc(Cl)cc3)cc2)[C@H]1O [Compound 19] |  |  |  | 2
CSCCC(NC=O)C(=O)NC1C(=O)NC(CC(N)=O)C(=O)NC2C(=O)NC3C(=O)NC(C(=O)NC(C(=O)O)c4cc(O)cc(O)c4-c4cc3ccc4O)C(O)c3ccc(c(Cl)c3)Oc3cc2cc(c3OC2OC(CO)C(O)C(O)C2OC2CC(C)(NCc3ccc(-c4ccc(Cl)cc4)cc3)C(O)C(C)O2)Oc2ccc(cc2Cl)C1O (stereo not shown) [Compound 196] |  |  |  | 2
CC1OC(OC2C(Oc3c4cc5cc3Oc3ccc(cc3Cl)C(O)C3NC(=O)C(NC(=O)C5NC(=O)C(CC(N)=O)NC(=O)C(NC(=O)C(=O)c5ccco5)C(O)c5ccc(c(Cl)c5)O4)c4ccc(O)c(c4)-c4c(O)cc(O)cc4C(C(=O)O)NC3=O)OC(CO)C(O)C2O)CC(C)(NCc2ccc(-c3ccc(Cl)cc3)cc2)C1O (stereo not shown) [Compound 239] |  | 2 |  | 
CC(C)=C(N)C(=O)NC1C(=O)NC(CC(N)=O)C(=O)NC2C(=O)NC3C(=O)NC(C(=O)NC(C(=O)O)c4cc(O)cc(O)c4-c4cc3ccc4O)C(O)c3ccc(c(Cl)c3)Oc3cc2cc(c3OC2OC(CO)C(O)C(O)C2OC2CC(C)(NCc3ccc(-c4ccc(Cl)cc4)cc3)C(O)C(C)O2)Oc2ccc(cc2Cl)C1O (stereo not shown) [Compound 216] |  | 2 |  | 
CC1OC(OC2C(Oc3c4cc5cc3Oc3ccc(cc3Cl)C(O)C(NC(=O)C3(N)CC3)C(=O)NC(CC(N)=O)C(=O)NC5C(=O)NC3C(=O)NC(C(=O)NC(C(=O)O)c5cc(O)cc(O)c5-c5cc3ccc5O)C(O)c3ccc(c(Cl)c3)O4)OC(CO)C(O)C2O)CC(C)(NCc2ccc(-c3ccc(Cl)cc3)cc2)C1O (stereo not shown) [Compound 218] |  | 2 |  | 
CC(=O)NC(CC[S+](C)[O-])C(=O)NC1C(=O)NC(CC(N)=O)C(=O)NC2C(=O)NC3C(=O)NC(C(=O)NC(C(=O)O)c4cc(O)cc(O)c4-c4cc3ccc4O)C(O)c3ccc(c(Cl)c3)Oc3cc2cc(c3OC2OC(CO)C(O)C(O)C2OC2CC(C)(NCc3ccc(-c4ccc(Cl)cc4)cc3)C(O)C(C)O2)Oc2ccc(cc2Cl)C1O (stereo not shown) [Compound 124] |  |  |  | 2
CC1OC(OC2C(Oc3c4cc5cc3Oc3ccc(cc3Cl)C(O)C3NC(=O)C(NC(=O)C5NC(=O)C(CC(N)=O)NC(=O)C(NC(=O)C(CCS(C)(=O)=O)NC(=O)OC(C)(C)C)C(O)c5ccc(c(Cl)c5)O4)c4ccc(O)c(c4)-c4c(O)cc(O)cc4C(C(=O)O)NC3=O)OC(CO)C(O)C2O)CC(C)(NCc2ccc(-c3ccc(Cl)cc3)cc2)C1O (stereo not shown) [Compound 143] |  |  |  | 2
CC1OC(OC2C(Oc3c4cc5cc3Oc3ccc(cc3Cl)C(O)C(NC(=O)C3OC(O)C(O)C3O)C(=O)NC(CC(N)=O)C(=O)NC5C(=O)NC3C(=O)NC(C(=O)NC(C(=O)O)c5cc(O)cc(O)c5-c5cc3ccc5O)C(O)c3ccc(c(Cl)c3)O4)OC(CO)C(O)C2O)CC(C)(NCc2ccc(-c3ccc(Cl)cc3)cc2)C1O (mixture of isomers) [Compound 128] |  |  |  | 2
